These results are taken from patent US12428403B2, “N-(heterocyclyl and heterocyclylalkyl)-3-benzylpyridin-2-amine derivatives as SSTR4 agonists” (Takeda Pharmaceutical Company Limited, priority 2020, dated 2025).
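Also: CHO-K1 cells overexpressing SSTR4, reduction of forskolin-driven cAMP after 30 min compound exposure at room temperature, cAMP read by HTRF LANCE Ultra kit.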

Sequence of SSTR4 (P31391 whole entry): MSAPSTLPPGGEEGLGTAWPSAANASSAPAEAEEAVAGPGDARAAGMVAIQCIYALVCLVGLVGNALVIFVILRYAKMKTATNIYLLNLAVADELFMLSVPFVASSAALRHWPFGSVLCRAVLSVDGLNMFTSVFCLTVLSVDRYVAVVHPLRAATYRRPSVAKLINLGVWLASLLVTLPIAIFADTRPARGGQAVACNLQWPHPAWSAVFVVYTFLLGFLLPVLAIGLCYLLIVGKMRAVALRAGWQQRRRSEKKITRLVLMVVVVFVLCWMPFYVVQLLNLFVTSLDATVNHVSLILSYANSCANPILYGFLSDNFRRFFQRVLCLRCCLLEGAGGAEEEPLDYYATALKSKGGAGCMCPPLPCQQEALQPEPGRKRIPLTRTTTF

This assay concerns the target SSTR4 (Homo sapiens, UniProt P31391). Kind of assay: cell-based.
Experimental: This cell-based assay measures the ability of compounds to inhibit forskolin stimulated cAMP in CHO-K1 cells overexpressing SSTR4. CHO-K1 cells overexpressing SSTR4 (CHO-SSTR4) are purchased from DiscoveRx (product code 95-0059C2). The CHO-SSTR4 cells are maintained in F12K media with 10% Fetal Bovine Serum (Hyclone), 1% Pen/Strep (Life Technologies), and 800 μg/mL G418 (Life Technologies). To perform the assay, 3000 cells are plated per well in white 384-well plate (Corning 3570) in 50 complete media and the cells are allowed to attach for 16 hours in a 37° C., 5% CO2 incubator. The next day, the culture media is removed from the cells and the cells are washed (added then removed) with Krebs Ringer Buffer (ZenBio, KRB-1000 mL). Test compounds are suspended in DMSO and diluted in stimulation buffer: Krebs Ringer Buffer plus 0.5% BSA (Roche), 300 μM IBMX (Sigma), and 350 nM forskolin (Sigma). The cells are incubated in 10 μL compound/stimulation buffer for 30 minutes at room temperature. Cellular cAMP levels are detected with a HTRF LANCE Ultra cAMP kit (Perkin Elmer, catalog number TRF0264).
The assay is performed in accordance with the manufacturer's instructions. Five μL of diluted Eu-W8044 labeled streptavidin (dilution: 1:50 in cAMP Detection Buffer) is added to each well. Then 5 μL of diluted biotin cAMP (dilution: 1:150 in cAMP Detection Buffer) is added to each well. The plates are covered and allowed to incubate for 60 minutes at room temperature on a shaker. HTRF (665 nm/615 nm) is read on a Perkin Elmer ENVISION plate reader. The pEC50 values are generated using Activity Base for Screening Data Management.
`CC1CN(C)CCC1Nc1ncc(C(F)(F)F)nc1Cc1ccc(F)cc1` (mixture of isomers) [Example 91, N-(1,3-dimethylpiperidin-4-yl)-3-(4-fluorobenzyl)-5-(trifluoromethyl)pyrazin-2-amine]: the response was half-maximal at 661 nM (EC50). That is a sub-micromolar value.

For the compound `CC1CN(C)CCC1Nc1ncc(C(N)=O)cc1Cc1ccc(F)cc1` (mixture of isomers) [Example 102, 6-((1,3-dimethylpiperidin-4-yl)amino)-5-(4-fluorobenzyl)nicotinamide], it took 398 nM to reach a half-maximal effect (EC50).

Turning to `CC[C@@H]1CN(C)CC[C@H]1Nc1ncc(C(=O)NC)nc1Cc1ccc(F)cc1` (racemic) [Example 36, 5-((trans-3-ethyl-1-methylpiperidin-4-yl)amino)-6-(4-fluorobenzyl)-N-methylpyrazine-2-carboxamide], a half-maximal response (EC50) required 224 nM.

As to `Cc1nc(N[C@@H]2CCN(C)C[C@H]2C)c(Cc2ccc(F)cc2)nc1C(=O)N(C)C` (racemic) [Example 47, 5-((trans-1,3-dimethylpiperidin-4-yl)amino)-6-(4-fluorobenzyl)-N,N,3-trimethylpyrazine-2-carboxamide], the EC50 – broadly, the midpoint of the concentration-response curve – was 47.9 nM. Against the preceding compound, the EC50 is about 4.7-fold lower.

In the case of `CC[C@@H]1CN(C)CC[C@H]1Nc1ncc(C(F)(F)F)nc1Cc1ccc(F)cc1` (racemic) [Example 95, N-(trans-3-ethyl-1-methylpiperidin-4-yl)-3-(4-fluorobenzyl)-5-(trifluoromethyl)pyrazin-2-amine], the midpoint of the response, the EC50, lay at 741 nM.

For `Fc1ccc(Cc2nccnc2N[C@@H]2CCNC[C@H]2F)cc1` (racemic) [Example 115, 3-(4-fluorobenzyl)-N-(trans-3-fluoropiperidin-4-yl)pyrazin-2-amine], the midpoint of the response, the EC50, lay at 219 nM. Against the preceding compound, the EC50 is about 3.4-fold lower.

`Cc1cccc2nc(Cc3ccccc3)c(NCCN3CCC3)nc12` (single isomer, unassigned) [Example 2, N-(2-(azetidin-1-yl)ethyl)-3-benzyl-8-methylquinoxalin-2-amine] showed an EC50 of 67.6 nM. This EC50 is about 3.2-fold lower than that of the compound before.

The compound `Cc1cccc2nc(NCCN3CCC3)c(Cc3ccccc3)nc12` (single isomer, unassigned) [Example 3, N-(2-(azetidin-1-yl)ethyl)-3-benzyl-5-methylquinoxalin-2-amine] gave an EC50 of 457 nM.

`COc1cccc(Cc2nc3c(C)cccc3nc2NCCN2CCC2)c1` (single isomer, unassigned) [Example 5, N-(2-(azetidin-1-yl)ethyl)-3-(3-methoxybenzyl)-5-methylquinoxalin-2-amine] gave an EC50 of 331 nM.

Compound `C[C@@H](c1ccc(F)cc1)c1nc(C(N)=O)cnc1NCCN1CCCC1` (single isomer, unassigned) [Example 20] gave an EC50 of 708 nM. Against the preceding compound, the EC50 is about 2.1-fold higher.

As for `C[C@@H](c1ccc(F)cc1)c1nc(C(N)=O)cnc1N[C@@H]1CCN(C)C1` (single isomer, unassigned) [Example 31], the EC50 is 331 nM.

In the case of `CNC(=O)c1cnc(N[C@@H]2CCN(C)C2)c([C@@H](C)c2ccc(F)cc2)n1` (single isomer, unassigned) [Example 34], a half-maximal effect (EC50) was put at 537 nM.

In turn, `CNC(=O)c1cnc(N[C@@H]2CCN(C)C2)c([C@H](C)c2ccc(F)cc2)n1` (single isomer, unassigned) [Example 35] gave an EC50 of 1200 nM. This EC50 lies about 2.2-fold higher than the previous one.

Turning to `C[C@H]1C[C@H](Nc2nccnc2Cc2ccc(F)cc2)CCN1C` (single isomer, unassigned) [Example 113, N-(trans-1,2-dimethylpiperidin-4-yl)-3-(4-fluorobenzyl)pyrazin-2-amine], the EC50 was 813 nM. This EC50 and that of the compound before are within 1.5-fold of each other.

`C[C@H]1C[C@@H](Nc2nccnc2Cc2ccc(F)cc2)CCN1C` (single isomer, unassigned) [Example 114, N-(cis-1,2-dimethylpiperidin-4-yl)-3-(4-fluorobenzyl)pyrazin-2-amine] showed an EC50 of 575 nM.

With `C[C@@H](c1ccc(F)cc1)c1nccnc1NCCN1CCCC1` (single isomer, unassigned) [Example 122], the EC50 is 575 nM.

With `Cc1nnc([C@@H](C)c2ccc(F)cc2)c(N[C@@H]2CCN(C)C2)n1` (single isomer, unassigned) [Example 142], the midpoint of the response, the EC50, lay at 120 nM.

In turn, `Cc1nnc([C@@H](C)c2ccc(F)cc2)c(N[C@H]2CCN(C)C2)n1` (single isomer, unassigned) [Example 147] had an EC50 of 224 nM.

As for `Cc1nnc([C@@H](C)c2ccccc2)c(N[C@@H]2CCN(C)C2)n1` (single isomer, unassigned) [Example 150], the EC50 was 363 nM.

For the compound `Cc1nnc([C@H](C)c2ccccc2)c(N[C@H]2CCN(C)C2)n1` (single isomer, unassigned) [Example 151], the EC50 was 316 nM. The EC50 values of the last two compounds are within 1.5-fold of each other.

Turning to `c1ccc(Cc2nc3ccccc3nc2NCCN2CCCC2)cc1` [Example 1, 3-benzyl-N-(2-(pyrrolidin-1-yl)ethyl)quinoxalin-2-amine], the EC50 is 166 nM.

Compound `Cc1cccc(Cc2cc3cccc(C)c3nc2NCCN2CCCC2)c1` [Example 7, 8-methyl-3-(3-methylbenzyl)-N-(2-(pyrrolidin-1-yl)ethyl)quinolin-2-amine] had an EC50 of 661 nM.

`C[C@H](c1ccc(F)cc1)c1nc(C(=O)NC2CCC2)cnc1NCCN1CCCC1` [Example 9, (R)-N-cyclobutyl-6-(1-(4-fluorophenyl)ethyl)-5-((2-(pyrrolidin-1-yl)ethyl)amino)pyrazine-2-carboxamide] had an EC50 of 81.3 nM.

Regarding `Cc1nc(NCCN2CCCC2)c(C(C)c2ccc(F)cc2)nc1C(=O)O` (centres unmarked) [Example 55], a half-maximal effect (EC50) was put at 13.8 nM. Against the preceding compound, the EC50 is about 5.9-fold lower.

As to `CO[C@H]1C[C@@H](NC(=O)c2nc(C(C)c3ccc(F)cc3)c(NCCN3CCCC3)nc2C)C1` (stereo partly drawn) [Example 56, 6-(1-(4-fluorophenyl)ethyl)-N-(cis-3-methoxycyclobutyl)-3-methyl-5-((2-(pyrrolidin-1-yl)ethyl)amino)pyrazine-2-carboxamide], the EC50 is 7.59 nM. This EC50 is about 1.8-fold lower than that of the compound before.

`Cc1nc(NCCN2CCCC2)c(C(C)c2ccc(F)cc2)nc1C(=O)NC1CCCC1` (centres unmarked) [Example 57, N-cyclopentyl-6-(1-(4-fluorophenyl)ethyl)-3-methyl-5-((2-(pyrrolidin-1-yl)ethyl)amino)pyrazine-2-carboxamide] gave an EC50 of 40.7 nM.

Regarding `Cc1nc(NCCN2CCCC2)c(C(C)c2ccc(F)cc2)nc1C(=O)N[C@H]1C[C@H](F)C1` (stereo partly drawn) [Example 76, N-(trans-3-fluorocyclobutyl)-6-(1-(4-fluorophenyl)ethyl)-3-methyl-5-((2-(pyrrolidin-1-yl)ethyl)amino)pyrazine-2-carboxamide], the EC50 is 7.76 nM. Against the preceding compound, the EC50 is about 5.2-fold lower.

`Cc1nc(Cc2ccc(F)cc2)c(NC2CCN(C)CC2)nc1C` [Example 79, 3-(4-fluorobenzyl)-5,6-dimethyl-N-(1-methylpiperidin-4-yl)pyrazin-2-amine] had an EC50 of 229 nM.

Compound `Cc1nc(Cc2ccc(F)cc2)c(NCCN2CCCC2)nc1C` [Example 80, 3-(4-fluorobenzyl)-5,6-dimethyl-N-(2-(pyrrolidin-1-yl)ethyl)pyrazin-2-amine] gave an EC50 of 19.1 nM.

Take `Cc1nc(Cc2ccc(F)cc2)c(N[C@@H]2CCN(C)C2)nc1C` [Example 81, (R)-3-(4-fluorobenzyl)-5,6-dimethyl-N-(1-methylpyrrolidin-3-yl)pyrazin-2-amine]: the EC50 was 240 nM.

`Cc1cccc(Cc2nc(C)c(C)nc2NC2CCN(C)CC2)c1` [Example 82, 5,6-dimethyl-3-(3-methylbenzyl)-N-(1-methylpiperidin-4-yl)pyrazin-2-amine] gave an EC50 of 107 nM.

The compound `Cc1cccc(Cc2nc(C)c(C)nc2NCCN2CCCC2)c1` [Example 83, 5,6-dimethyl-3-(3-methylbenzyl)-N-(2-(pyrrolidin-1-yl)ethyl)pyrazin-2-amine] showed an EC50 of 7.76 nM. Against the preceding compound, the EC50 is about 14-fold lower.

`Cc1cccc(Cc2nc(C)c(C)nc2N[C@@H]2CCN(C)C2)c1` [Example 84, (R)-5,6-dimethyl-3-(3-methylbenzyl)-N-(1-methylpyrrolidin-3-yl)pyrazin-2-amine] gave an EC50 of 45.7 nM. Compared with the last compound, the EC50 is about 5.9-fold higher.

Compound `Cc1cnc(NCCN2CCCC2)c(C(C)c2ccc(F)cc2)n1` (centres unmarked) [Example 86, 3-(1-(4-fluorophenyl)ethyl)-5-methyl-N-(2-(pyrrolidin-1-yl)ethyl)pyrazin-2-amine] gave an EC50 of 79.4 nM.

Consider `CCc1cnc(Cc2ccccc2)c(NCCN2CCC2)n1` [Example 89, N-(2-(azetidin-1-yl)ethyl)-3-benzyl-6-ethylpyrazin-2-amine], for which the EC50 is 15.8 nM.

In turn, `CC1CN(C)CCC1Nc1nc(C(F)(F)F)cnc1Cc1ccc(F)cc1` (centres unmarked) [Example 92, N-(1,3-dimethylpiperidin-4-yl)-3-(4-fluorobenzyl)-6-(trifluoromethyl)pyrazin-2-amine] had a concentration giving a half-maximal response (EC50) of 115 nM.

`Fc1ccc(Cc2ncc(C(F)(F)F)nc2NCCN2CCCC2)cc1` [Example 93, 3-(4-fluorobenzyl)-N-(2-(pyrrolidin-1-yl)ethyl)-6-(trifluoromethyl)pyrazin-2-amine] gave an EC50 of 77.6 nM.

Compound `CC(c1ccc(F)cc1)c1ncc(C(F)(F)F)nc1NCCN1CCCC1` (centres unmarked) [Example 94, 3-(1-(4-fluorophenyl)ethyl)-N-(2-(pyrrolidin-1-yl)ethyl)-6-(trifluoromethyl)pyrazin-2-amine] showed an EC50 of 151 nM.

Take `Cc1cccc(Cc2nc(C#N)c(C)nc2N[C@@H]2CCN(C)C2)c1` [Example 97, (R)-3-methyl-6-(3-methylbenzyl)-5-((1-methylpyrrolidin-3-yl)amino)pyrazine-2-carbonitrile]: the EC50 is 36.3 nM.

Compound `COc1cccc(Cc2nc(C#N)c(C)nc2N[C@@H]2CCN(C)C2)c1` [Example 98, (R)-6-(3-methoxybenzyl)-3-methyl-5-((1-methylpyrrolidin-3-yl)amino)pyrazine-2-carbonitrile] showed an EC50 of 77.6 nM.

The compound `CN(C)C(=O)c1cnc(NCCN2CCCC2)c(Cc2ccc(F)cc2)c1` [Example 99, 5-(4-fluorobenzyl)-N,N-dimethyl-6-((2-(pyrrolidin-1-yl)ethyl)amino)nicotinamide] had an EC50 of 107 nM.

In turn, `NC(=O)c1cnc(NCCN2CCCC2)c(Cc2ccc(F)cc2)c1` [Example 100, 5-(4-fluorobenzyl)-6-((2-(pyrrolidin-1-yl)ethyl)amino)nicotinamide] had an EC50 of 95.5 nM.

As to `CNC(=O)c1cnc(NCCN2CCCC2)c(Cc2ccc(F)cc2)c1` [Example 101], the response was half-maximal at 166 nM (EC50).

`CN1CCCC1CNc1nccnc1Cc1ccc(F)cc1` (centres unmarked) [Example 109, 3-(4-fluorobenzyl)-N-((1-methylpyrrolidin-2-yl)methyl)pyrazin-2-amine]: a half-maximal effect (EC50) was put at 501 nM.
